# Read-outs that look alike come from different tables or passages of the source.
# What was measured:
# [1] = system: T. cruzi, strain Tulahuen C4 amastigotes; test: In vitro activity against T. cruzi amastigotes; format: cell-based; settings: for antichagasic activity class (TDR criteria): T. cruzi amastigotes; for Bnz/comp: fold potency against T. cruzi relative to Bnz; for SI (IC50 in L6 cells/IC50 in T. cruzi): selectivity index vs L6 cells
# [2] = system: T.b. rhodesiense, strain STIB 900 trypomastigotes; test: In vitro activity against T. b. rhodesiense; format: cell-based; settings: for anti-HAT activity class (TDR criteria): BSF T. b. rhodesiense
# [3] = system: L6 cells (rat skeletal myoblasts); test: Cytotoxicity in host L6 cells; format: cell-based
# [4] = system: Chagas disease; settings: cited from earlier work; for cure rates, chronic stage: adults in the chronic stage
# [5] = system: transgenic T. cruzi parasites expressing firefly luciferase; test: In vivo antichagasic activity, acute T. cruzi infected murine model; settings: i.p., 15 mg/kg/day (compound 5: 13 mg/kg/day)
# [6] = system: Caco-2 cells; test: Caco-2 monolayer permeability; format: in vitro ADME; settings: 10 μM, 2 h
# [7] = system: blood stream form T. b. brucei parasites overexpressing TbNTR; test: Susceptibility of blood stream form T. b. brucei with or without elevated TbNTR; format: cell-based
# [8] = target: T1, T. cruzi CYP51 (Trypanosoma cruzi, UniProt Q7Z1V1); test: Reconstituted CYP51 reaction inhibition; format: biochemical; settings: compound 19: at high I/E ratios (≥ 20)
# [9] = target: T1, T. cruzi CYP51; test: Spectral titration binding to T. cruzi CYP51; settings: TcCYP51 spectral response
# [10] = system: T. cruzi, strain Tulahuen C4 amastigotes; settings: cited from earlier work
# [11] = system: T.b. rhodesiense, strain STIB 900 trypomastigotes; settings: cited from earlier work
# [12] = system: L6 cells (rat skeletal myoblasts); settings: read-out: Cytotox. L6 IC-50; host L6 cells; cited from earlier work
# [13] = polar surface area, predicted; cited from earlier work
# [14] = Caco-2 monolayer permeability; format: in vitro ADME; settings: human, Caco-2
# [15] = read-out: T.cruzi IC-50, strain Tulahuen C4 amastigotes
# [16] = read-out: T.b.rhod. IC-50, strain STIB 900 trypomastigotes
# T1 sequence (Q7Z1V1 whole entry): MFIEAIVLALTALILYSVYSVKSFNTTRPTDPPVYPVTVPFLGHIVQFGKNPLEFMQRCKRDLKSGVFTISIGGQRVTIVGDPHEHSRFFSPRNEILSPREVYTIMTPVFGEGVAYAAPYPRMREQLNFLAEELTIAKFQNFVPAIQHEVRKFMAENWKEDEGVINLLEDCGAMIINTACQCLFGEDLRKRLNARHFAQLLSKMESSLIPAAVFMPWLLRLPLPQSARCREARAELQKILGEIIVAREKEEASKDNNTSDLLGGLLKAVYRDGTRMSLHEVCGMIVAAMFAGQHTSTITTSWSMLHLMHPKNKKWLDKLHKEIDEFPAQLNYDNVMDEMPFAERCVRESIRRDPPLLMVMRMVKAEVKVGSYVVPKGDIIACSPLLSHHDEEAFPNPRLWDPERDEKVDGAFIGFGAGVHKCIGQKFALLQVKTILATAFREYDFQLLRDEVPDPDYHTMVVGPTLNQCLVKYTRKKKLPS
molecule,measurement,setting,value
"1-(4-phenylphenyl)-2-(1H-1,2,4-triazol-1-yl)ethan-1-one [Compound 11]",antichagasic activity class (TDR criteria),[1],active
same,Bnz/comp,[1],11.9
same,IC50,[1]; [15],188 nM
same,SI (IC50 in L6 cells/IC50 in T. cruzi),[1],1164
same,IC50,[2]; [16],1750 nM
same,SI (IC50 in L6 cells/IC50 in T.b. rhodesiense),[2]; selectivity index vs L6 cells,125
same,IC50,[3],220000 nM
"O=C(Cn1ccnc1[N+](=O)[O-])NCc1ccccc1 [Bnz, N-benzyl-2-(2-nitro-1H-imidazol-1-yl)acetamide]","cure rates, acute phase",[4]; acute phase of Chagas disease,65-80%
same,"cure rates, chronic stage",[4],15-30%
"N#Cc1ccc(-c2ccc(NC(=O)Cn3cnc([N+](=O)[O-])n3)cc2)cc1 [Compound 2, N-[4-(4-cyanophenyl)phenyl]-2-(3-nitro-1H-1,2,4-triazol-1-yl)acetamide]",Bnz/comp,[1],10.77
same,parasite levels after 5 days of treatment,[5],undetectable levels
same,anti-HAT activity class (TDR criteria),[2],active
same,Caco 2 permeability ranking,[6],high
same,"fold more susceptible, TbNTR-overexpressing vs non-induced parasites",[7],2 to 3 fold
same,reversibility of TcCYP51 inhibition,[8],reversible
"O=C(Cn1cnc([N+](=O)[O-])n1)Nc1nc(-c2ccc(Cl)cc2)cs1 [Compound 3, N-[4-(4-chlorophenyl)-1,3-thiazol-2-yl]-2-(3-nitro-1H-1,2,4-triazol-1-yl)acetamide]",antichagasic activity class (TDR criteria),[1],active
same,Bnz/comp,[1],7.24
"O=C(Cn1cnc([N+](=O)[O-])n1)Nc1nnc(-c2ccc(Cl)cc2)s1 [Compound 4, N-[5-(4-chlorophenyl)-1,3,4-thiadiazol-2-yl]-2-(3-nitro-1H-1,2,4-triazol-1-yl) acetamide]",Bnz/comp,[1],0.04
same,anti-HAT activity class (TDR criteria),[2],did not show any anti-HAT activity
"O=C(Cn1cnc([N+](=O)[O-])n1)Nc1ccc(-c2ccc(Cl)cc2)cc1 [Compound 5, N-(4′-chloro-[1,1′-biphenyl]-4-yl)-2-(3-nitro-1H-1,2,4-triazol-1-yl)acetamide]",factor of increased efficacy against T. cruzi compared to analog 2,[1],3 fold
same,parasite levels after 5 days of treatment,[5],undetectable levels
"O=C(Cn1cnc([N+](=O)[O-])n1)Nc1nc(-c2ccc(F)c(F)c2)cs1 [Compound 6, N-(4-(3,4-difluorophenyl)thiazol-2-yl)-2-(3-nitro-1H-1,2,4-triazol-1-yl)acetamide]",antichagasic activity class (TDR criteria),[1],active
same,Bnz/comp,[1],4.42
same,anti-HAT activity class (TDR criteria),[2],inactive
"O=C(Cn1ccnc1[N+](=O)[O-])Nc1nc(-c2ccc(F)c(F)c2)cs1 [Compound 7, N-(4-(3,4-difluorophenyl)thiazol-2-yl)-2-(2-nitro-1H-imidazol-1-yl)acetamide]",fold less active against T. cruzi compared to 6,[1],about 8.7 fold
same,antichagasic activity class (TDR criteria),[1],borderline active
same,Bnz/comp,[1],0.51
same,anti-HAT activity class (TDR criteria),[2],inactive
"Cc1nc(-c2cccc(NC(=O)Cn3cnc([N+](=O)[O-])n3)c2)cs1 [Compound 8, N-(3-(2-methylthiazol-4-yl)phenyl)-2-(3-nitro-1H-1,2,4-triazol-1-yl)acetamide]",antichagasic activity class (TDR criteria),[1],active
same,Bnz/comp,[1],3.67
"O=C(Cn1cnc([N+](=O)[O-])n1)Nc1ccc(N2CCCCC2)cc1 [Compound 9, 2-(3-nitro-1H-1,2,4-triazol-1-yl)-N-(4-(piperidin-1-yl)phenyl)acetamide]",antichagasic activity class (TDR criteria),[1],active
same,Bnz/comp,[1],3.66
same,anti-HAT activity class (TDR criteria),[2],inactive
"O=C(Cn1cnc([N+](=O)[O-])n1)c1ccc(F)cc1F [Compound 10, 1-(2,4-difluorophenyl)-2-(3-nitro-1H-1,2,4-triazol-1-yl)ethan-1-one]",antichagasic activity class (TDR criteria),[1],active
same,Bnz/comp,[1],1.29
"CC(O)(Cn1cnc([N+](=O)[O-])n1)c1ccc(-n2ccnc2)cc1 (stereo not shown) [Compound 14, 2-[4-(1H-imidazol-1-yl)phenyl]-1-(3-nitro-1H-1,2,4-triazol-1-yl)propan-2-ol]",fold less potent against T. cruzi than 17,[1],32 fold
same,antichagasic activity class (TDR criteria),[1],active
same,Bnz/comp,[1],0.68
"CC(O)(Cn1cncn1)c1ccc(-n2ccnc2)cc1 (stereo not shown) [Compound 15, 2-[4-(1H-imidazol-1-yl)phenyl]-1-(1H-1,2,4-triazol-1-yl)propan-2-ol]",anti-HAT activity class (TDR criteria),[2],inactive
"CC(O)(Cn1cncn1)c1ccc(-c2ccccc2)cc1 (stereo not shown) [Compound 16, 2-(4-phenylphenyl)-1-(1H-1,2,4-triazol-1-yl)propan-2-ol]",fold less potent against T. cruzi than 17,[1],7 fold
same,antichagasic activity class (TDR criteria),[1],active
same,Bnz/comp,[1],3.17
same,anti-HAT activity class (TDR criteria),[2],inactive
"CC(O)(Cn1cnc([N+](=O)[O-])n1)c1ccc(-c2ccccc2)cc1 (stereo not shown) [Compound 17, 1-(3-nitro-1H-1,2,4-triazol-1-yl)-2-(4-phenylphenyl)propan-2-ol]",Bnz/comp,[1],21.94
"O=[N+]([O-])c1ncn(CC(O)(Cn2cncn2)c2ccc(F)cc2F)n1 (stereo not shown) [Compound 18, 2-(2,4-difluorophenyl)-1-(3-nitro-1H-1,2,4-triazol-1-yl)-3-(1H-1,2,4-triazol-1-yl)-propan-2-ol]",fold less potent against T. cruzi than 19,[1],36 fold
same,fold more potent against T. cruzi than fluconazole,[1],8.5 fold
same,Bnz/comp,[1],1.81
"O=[N+]([O-])c1ncn(CC(O)(Cn2cncn2)c2ccc(-c3ccccc3)cc2)n1 (stereo not shown) [Compound 19, 1-(3-nitro-1H-1,2,4-triazol-1-yl)-2-(4-phenylphenyl)-3-(1H-1,2,4-triazol-1-yl)propan-2-ol]","apparent Kd, fold stronger than fluconazole",[9],10 fold
same,Caco 2 permeability ranking,[6],high
same,reversibility of TcCYP51 inhibition,[8],irreversible
"Fc1ccc(C2(Cn3cncn3)Cn3ccnc3O2)c(F)c1 (stereo not shown) [Compound 20, 1-{[2-(2,4-difluorophenyl)-2H,3H-imidazo[2,1-b][1,3]oxazol-2-yl]methyl}-1H-1,2,4-triazole]",fold less potent against T. cruzi than 18,[1],about 5 fold
same,Bnz/comp,[1],0.35
same,SI (IC50 in L6 cells/IC50 in T. cruzi),[1],>49.4
"Cc1ccc(S(=O)(=O)NC(Cc2ccccc2)Cn2cnc([N+](=O)[O-])n2)cc1 (stereo not shown) [Compound 21, 4-Methyl-N-[1-(3-nitro-1H-1,2,4-triazol-1-yl)-3-phenylpropan-2-yl]benzene-1-sulfonamide]",fold less potent against T. cruzi than 17,[1],about 3 fold
same,antichagasic activity class (TDR criteria),[1],active
same,Bnz/comp,[1],1.7
O=[N+]([O-])c1ncn(CCCNS(=O)(=O)c2ccc(Cl)s2)n1 [Compound 23],Bnz/comp,[10]; fold potency against T. cruzi relative to Bnz,3.6
same,IC50,[10]; [15],438 nM
same,SI (IC50 in L6 cells/IC50 in T. cruzi),[10]; selectivity index vs L6 cells,556
same,IC50,[11]; [16],1990 nM
same,SI (IC50 in L6 cells/IC50 in T.b. rhodesiense),[11]; selectivity index vs L6 cells,122
same,IC50,[12],244000 nM
same,PSA,[13],122.7 Å^2
"Nc1nc(N)nc(Nc2ccc([As]3SCC(CO)S3)cc2)n1 (stereo not shown) [Melars., Melarsoprol, reference compound]",IC50,"[2]; Trypanosoma brucei, RHODESIENSE|STIB900, read-out: T.b.rhod. IC-50",7 ± 1 nM
"CC1CS(=O)(=O)CCN1/N=C/c1ccc([N+](=O)[O-])o1 (stereo not shown) [Nfx, 4-(5-nitrofurfurylindenamino)-3-methylthio-morpholine-1,1-dioxide]","cure rates, chronic stage",[4],15-30%
"CNC(=C[N+](=O)[O-])NCCSCc1ccc(CN(C)C)o1 [Ranitidine, reference compound]","Papp A→B at 2 h, 10 µM",[14],0.24 ×10⁻⁶ cm/s
CC[C@@H]([C@H](C)O)n1ncn(-c2ccc(N3CCN(c4ccc(OC[C@@H]5CO[C@@](Cn6cncn6)(c6ccc(F)cc6F)C5)cc4)CC3)cc2)c1=O [posaconazole],treatment failure,"[4]; clinical trials, human patients with chronic Chagas disease",~80%
